Measured values from PubChem BioAssay (NCI).
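48-hour exposure; five concentrations; linearly interpolated endpoints. TGI: concentration producing complete growth inhibition.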

Legend:
Assay in all cases: growth of human tumour cells (NCI), 48 h
A498 renal = test system: A498 renal
KM12 colon = test system: KM12 colon
SK-MEL-28 melanoma = test system: SK-MEL-28 melanoma
SNB-19 CNS = test system: SNB-19 CNS
NCI-H460 lung = test system: NCI-H460 lung
U251 CNS = test system: U251 CNS
M14 melanoma = test system: M14 melanoma
NCI/ADR-RES ovarian = test system: NCI/ADR-RES ovarian
SW-620 colon = test system: SW-620 colon
MCF7 breast = test system: MCF7 breast
T-47D breast = test system: T-47D breast
IGROV1 ovarian = test system: IGROV1 ovarian
HT29 colon = test system: HT29 colon
OVCAR-8 ovarian = test system: OVCAR-8 ovarian
SF-539 CNS = test system: SF-539 CNS
RXF 393 renal = test system: RXF 393 renal
CCRF-CEM leukemia = test system: CCRF-CEM leukemia
COLO 205 colon = test system: COLO 205 colon
SK-OV-3 ovarian = test system: SK-OV-3 ovarian
DMS 273 small cell lung = test system: DMS 273 small cell lung

| SMILES | TGI (A498 renal) | TGI (KM12 colon) | TGI (SK-MEL-28 melanoma) | TGI (SNB-19 CNS) | TGI (NCI-H460 lung) | TGI (U251 CNS) | TGI (M14 melanoma) | TGI (NCI/ADR-RES ovarian) | TGI (SW-620 colon) | TGI (MCF7 breast) | TGI (T-47D breast) | TGI (IGROV1 ovarian) | TGI (HT29 colon) | TGI (OVCAR-8 ovarian) | TGI (SF-539 CNS) | TGI (RXF 393 renal) | TGI (CCRF-CEM leukemia) | TGI (COLO 205 colon) | TGI (SK-OV-3 ovarian) | TGI (DMS 273 small cell lung) |
| --- | --- | --- | --- | --- | --- | --- | --- | --- | --- | --- | --- | --- | --- | --- | --- | --- | --- | --- | --- | --- |
| CCOC(C)O[C@H]1C(=O)OCC1(C)C (stereo partly drawn) | > 100 µM | > 100 µM | > 100 µM | > 100 µM | > 100 µM | > 100 µM | > 100 µM | > 100 µM | > 100 µM | > 100 µM | > 100 µM | > 100 µM | > 100 µM | > 100 µM | > 100 µM | > 100 µM | > 100 µM | > 100 µM | > 100 µM |  |
| COC(=O)CC1N=C(NC#N)N(CCc2c[nH]c3ccccc23)C1=O (stereo not drawn) |  | > 100 µM | > 100 µM | > 100 µM | > 100 µM | > 100 µM | > 100 µM |  | > 100 µM |  |  | > 100 µM | > 100 µM | > 100 µM | > 100 µM | > 100 µM | > 100 µM | > 100 µM | > 100 µM | > 100 µM |
| O=c1cc(-c2ccc(Oc3ccccc3)cc2)[nH]c2cc3c(cc12)OCO3 | > 100 µM |  | > 100 µM | > 100 µM | > 100 µM | > 100 µM | > 100 µM |  | > 100 µM |  |  | > 100 µM | > 100 µM | > 100 µM | > 100 µM | > 100 µM | > 100 µM | > 100 µM |  | > 100 µM |
| Clc1ccc(-c2cc3nc4ccccc4nc3o2)cc1 | > 100 µM | > 100 µM | > 100 µM | > 100 µM | > 100 µM | > 100 µM | > 100 µM | > 100 µM | > 100 µM | > 100 µM | > 100 µM | > 100 µM | > 100 µM | > 100 µM | > 100 µM | 90 µM | > 100 µM | > 100 µM | > 100 µM |  |
| COC(=O)Nc1nc2ccc(S(=O)(=O)SC)cc2[nH]1 | 99.7 µM | > 100 µM | 25.3 µM | > 100 µM | > 100 µM | 29.9 µM | 18.4 µM | 82.4 µM | 25.2 µM | 27 µM | 30.4 µM | 15.3 µM | 11.1 µM | 30.6 µM | 39.3 µM | 17.9 µM | 61.4 µM | > 100 µM | 43 µM |  |
| CC(=O)O[C@H]1C(=O)[C@@]2(C)C(C(OC(=O)c3ccccc3)[C@]3(O)CC(OC(=O)C(O)C(NC(=O)c4ccc(C(F)(F)F)cc4)c4ccccc4)C(C)=C1C3(C)C)[C@]1(OC(C)=O)CO[C@@H]1C[C@@H]2O (stereo partly drawn) | > 37.5 µM | 0.202 µM | 17.8 µM | > 37.5 µM | 0.783 µM | 2.43 µM | 0.485 µM |  | 0.763 µM |  |  | > 37.5 µM | 0.237 µM | 2.44 µM | 0.65 µM |  | 15.5 µM | 0.153 µM | 0.946 µM | 0.53 µM |
| CC1=CCC(O)C=CC(C)C(O)C(C)C=C(C)C(=O)c2c(O)c(C)cc3c2C(=O)C(N)=C(NC(=O)/C=C\C=C/C=CC(C)C(O)CC1=O)C3=O (stereo not drawn) | > 100 µM | > 100 µM | > 100 µM | > 100 µM |  | > 100 µM | > 100 µM |  | > 100 µM |  |  | > 100 µM | > 100 µM | > 100 µM | > 100 µM |  | > 100 µM | > 100 µM | > 100 µM | > 100 µM |
| CN(C)CC1CCCC(CN(C)C)C1OC(=O)c1ccccc1 (stereo not drawn) | > 100 µM | > 100 µM | > 100 µM |  | > 100 µM | > 100 µM | > 100 µM |  | > 100 µM |  |  | > 100 µM | > 100 µM | > 100 µM | > 100 µM | > 100 µM | > 100 µM | > 100 µM | > 100 µM | > 100 µM |
| CCOC(=O)c1cn2c(n1)sc1cc(Cl)ccc12 | > 100 µM | > 100 µM | > 100 µM | 83.2 µM | > 100 µM | 60.7 µM | > 100 µM | > 100 µM | > 100 µM | > 100 µM | > 100 µM | > 100 µM | > 100 µM | > 100 µM | 26 µM | > 100 µM | > 100 µM | 60.8 µM | > 100 µM |  |
| O=C(NCP(=O)(c1ccccc1)c1ccccc1)OCc1ccccc1 | > 100 µM | > 100 µM | > 100 µM | > 100 µM | > 100 µM | > 100 µM | > 100 µM | > 100 µM | > 100 µM | > 100 µM | > 100 µM | > 100 µM | > 100 µM | > 100 µM | > 100 µM | > 100 µM | > 100 µM | > 100 µM | > 100 µM |  |
